According to US20130309306A1, “INTRAPULMONARY BENZODIAZEPINE FOR THE TREATMENT AND PREVENTION OF SEIZURES” (priority 2010, published 2013):

System: PTZ-induced seizures
Assay: PTZ seizure threshold test, tonic extension endpoint, Example 2
Format: in vivo, mice
Protocol: NIH Swiss mice (22-30 g) were kept in a vivarium under controlled environmental conditions (temperature, 22-26° C.; humidity, 40-50%) with an artificial 12-h light/dark cycle. Wood chips were used in all cages. Experiments were performed during the light phase of the light/dark cycle after a minimum 30-min period of acclimation to the experimental room. The animal facilities were fully accredited by the Association for Assessment and Accreditation of Laboratory Animal Care. All studies were performed under protocols approved by the Animal Care and Use Committee of the University of California, Davis in strict compliance with the Guide for the Care and Use of Laboratory Animals of the National Research Council (National Academy Press, Washington, D.C.; on the internet at nap.edu/readingroom/books/labrats/).
Midazolam was administered as a commercially available injectable solution (midazolam hydrochloride, 10 mg/10 ml; APP Pharmaceuticals, Schaumburg, Ill., USA) containing sodium chloride (0.8% w/v), disodium edetate (0.01% w/v), benzyl alcohol as preservative (1% v/v) with HCl to adjust the pH 3-3.6. Pentylenetetrazol (PTZ) (Sigma-Aldrich, St. Louis, Mo., USA) was dissolved in 0.9% w/v saline. The remaining test substances were all obtained from Tocris Bioscience (Ellisville, Mo., USA) except for clonazepam, which was from Sigma-Aldrich. Finasteride was dissolved in 25% hydroxypropyl-β-cyclodextrin (Trappsol; Cyclodextrin Technologies Development, High Springs, Fla., U.S.A.). Metyrapone was dissolved in double distilled water and PK 11195 and clonazepam were suspended in 1% Tween 80 and adjusted to volume with saline.
PTZ seizure threshold was determined according to a protocol used previously in our laboratory (Dhir et al., 2011). Intravenous PTZ elicits a sequence of seizure signs beginning with twitch and progressing to clonus and tonic limb extension. In the present study, tonic extension was used as the endpoint. […] It is noteworthy that this is the endpoint originally used in studies characterizing the actions of midazolam against PTZ seizures in mice (Pieri, 1983 Br J Clin Pharmacol 16 Suppl 1: 17S-27S). A 27 gauge-¾ inch “butterfly” needle was inserted into the lateral tail vein and the needle was secured with a narrow piece of adhesive tape. The animal was placed inside a 2 L glass beaker with free aeration from the top and allowed to move freely. The needle was connected by polyethylene tubing to a Beckton, Dickinson 1 ml syringe mounted on an infusion pump (Model ‘11’ plus syringe pump; Harvard Apparatus, Holliston, Mass.). PTZ solution (10 mg/ml) was infused at a constant rate of 0.5 ml/min. The infusion was stopped at 3 min or at the onset of tonic extension, whichever occurred first. The threshold value (mg/kg) for tonic extension was determined according to the formula: (infusion duration [sec]×infusion rate [ml/min]×PTZ concentration [mg/ml]×1000)/(60 [sec]×weight of mouse [g]).
In an initial experiment, the dose-response relationship for midazolam elevation of seizure threshold was assessed at doses of 100 μg/kg to 5 mg/kg (15 min pretreatment time). […] PK 11195 was used at a dose (15 mg/kg) as in the study of Ugale et al. (2004 Brain Res. 2004 Oct. 8; 1023(1):102-11). Clonazepam was administered at a dose of 100 μg/kg (Akula et al., 2009). The volume of all intraperitoneal injections was 10 ml/kg.
Results are expressed as mean±S.E.M.; the significance of the difference in the responses of treatment groups with respect to control is based on one-way analysis of variance (ANOVA) followed by specific post-hoc comparisons using Tukey's test. Differences are considered statistically significant when the probability of type I error was less than 0.05.

## CC(C)(C(=O)c1cccnc1)c1cccnc1 [metyrapone]
Metyrapone 100 mg/kg i.p. 15 min before midazolam 500 μg/kg i.p. (FIG. 9)
  PTZ seizure threshold when administered prior to midazolam: further increment in threshold
Metyrapone 100 mg/kg i.p. (FIG. 9)
  PTZ seizure threshold, by itself: significant elevation in the threshold

## O=C1CN=C(c2ccccc2Cl)c2cc([N+](=O)[O-])ccc2N1 [clonazepam]
Clonazepam 100 μg/kg i.p., 15 min before i.v. PTZ infusion, in the absence of finasteride
  increase in threshold for tonic extension (vs vehicle only control): 2.8 fold

## CCOC(=O)c1ncn2c1CN(C)C(=O)c1cc(F)ccc1-2 [flumazenil]
Flumazenil 5 mg/kg i.p. 5 min before midazolam 100 and 200 μg/kg intratracheal (FIG. 12)
  effect on threshold elevation caused by intratracheal midazolam: did abolish the threshold elevation
Flumazenil 5 mg/kg i.p. (FIG. 12)
  PTZ seizure threshold, pretreatment by itself: did not alter the PTZ seizure threshold

## CCC(C)N(C)C(=O)c1cc2ccccc2c(-c2ccccc2Cl)n1 (centres unmarked) [PK 11195, 1-(2-chlorophenyl)-N-methyl-N-(1-methylpropyl)-3-isoquinolinecarboxamide]
PK 11195 15 mg/kg i.p.
  PTZ seizure threshold, by itself: did not affect the seizure threshold
PK 11195 15 mg/kg i.p. 30 min before clonazepam (FIG. 11 lower panel)
  effect on seizure threshold elevation produced by clonazepam: did not reduce the seizure threshold elevation
PK 11195 15 mg/kg i.p. 30 min before midazolam 500 μg/kg i.p. (FIG. 10)
  effect on threshold elevation produced by midazolam: significantly reduced the elevation in threshold

## CC(C)(C)NC(=O)[C@H]1CC[C@H]2[C@@H]3CC[C@H]4NC(=O)C=C[C@]4(C)[C@H]3CC[C@]12C [finasteride]
Finasteride 100 mg/kg i.p. 5 min before midazolam 100 μg/kg intratracheal (FIG. 13)
  effect on threshold elevation caused by intratracheal midazolam: did significantly reduce the threshold elevation
Finasteride 100 mg/kg i.p. 5 min before midazolam 500 μg/kg i.p. (FIG. 8)
  effect on threshold elevation caused by midazolam: partially reduce the threshold elevation
Finasteride 100 mg/kg i.p. before clonazepam 100 μg/kg i.p. (FIG. 11 upper panel)
  effect on seizure threshold elevation produced by clonazepam: did reduce the seizure threshold elevation
Finasteride 100 mg/kg i.p., no midazolam (FIG. 8)
  PTZ seizure threshold, pretreatment by itself: did not alter the PTZ seizure threshold
Finasteride 50 and 100 mg/kg i.p. (FIG. 13)
  PTZ seizure threshold, pretreatment by itself: did not alter the PTZ seizure threshold
Finasteride before lower dose of clonazepam 25 μg/kg
  effect on seizure threshold elevation produced by clonazepam: trend toward an effect of finasteride, although it did not reach statistical significance
